Results reported in patent US20230270798A1, “SYNBIOTIC COMPOSITION” (SOCIETE DES PRODUITS NESTLE S.A., priority 2020, published 2023).

Columns and labels:
Streptococcus salivarius = assay: Short-term colonic incubation, population of Streptococcus salivarius (16S Illumina sequencing with flow cytometry); assay type: cell-based
Procedure: (§1) The aim of this project was to evaluate the properties of a synbiotic combination of Bifidobacterium longum subsp. longum ATCC BAA-999 and LNT using short-term colonic incubations (48 h), in which the proximal colon environment of a baby was simulated. The evaluation was based on the effects on microbial metabolic activity (SCFA, lactate and ammonium production) and community composition (16Stargeted Illumina sequencing), through comparison with a blank (no treatment), a probiotic (containing only the B. longum subsp. longum strain) and a prebiotic (containing only LNT).
(§2) In these experiments, a simplified simulation of the continuous Simulator of the Human Microbial Ecosystem (SHIME®) was used. […]
(§3) To account for biological variability, all tests were performed in triplicate, resulting in 12 independent incubations. […] Ammonium concentrations were measured at the start and after 48 h of incubation. The effect on the gut microbial community was assessed through Illumina sequencing at the start of the incubation and after 6 h, and 48 h. […]

B. longum subsp. longum = assay: Short-term colonic incubation, population of B. longum subsp. longum (16S Illumina sequencing with flow cytometry); assay type: cell-based, Bifidobacterium longum subsp. longum; conditions: after 6 and 48 hours of incubation; synbiotic compared to the probiotic alone
Procedure: as §1, §2, §3

## CC(=O)N[C@H]1[C@H](O[C@H]2[C@@H](O)[C@@H](CO)O[C@@H](O[C@H]3[C@H](O)[C@@H](O)C(O)O[C@@H]3CO)[C@@H]2O)O[C@H](CO)[C@@H](O)[C@@H]1O[C@@H]1O[C@H](CO)[C@H](O)[C@H](O)[C@H]1O (stereo partly drawn) [prebiotic, Lacto-N-tetraose]
Streptococcus salivarius; 48 hours vs 6 hours
  population of S. salivarius at 48 hours compared to the population at 6 hours (in words): strongly decreases
Streptococcus salivarius; after 6 and 48 hours of incubation
  boost of the population of Streptococcus salivarius (in words): neither the probiotic alone, nor the prebiotic alone were able to boost
B. longum subsp. longum
  population of B. longum subsp. longum (in words): no effect
